Data reported in patent US20130014428A1, “METHODS OF MONITORING AND CONTROLLING THE WALNUT TWIG BEETLE, PITYOPHTHORUS JUGLANDIS” (The United States of America as Represented by the …, priority 2011, published 2013).

How the values were obtained:
P. juglandis = assay: GC-EAD (electroantennal detection) of volatile extract; design: species or system Pityophthorus juglandis; settings: extract of J. hindsii with male and female P. juglandis feeding 45 hr
Experimental: Gas Chromatography-Electroantennal Detection (GC-EAD). GC-EAD analysis was performed on the extract of walnut (Juglans hindsii) with male and female P. juglandis feeding for 45 hr (pentane extract (7)). The sample was analyzed with an HP5890 GC with the following conditions: DB-5 column 30 m×0.32, oven 50° C. for 1 min, temperature programmed at 20° C./min to a final temperature of 280° C.

[1] = test system: walnut twig beetle (WTB), Pityophthorus juglandis; assay: Example 1 Field Test 2: flight response to X with and without racemic conophthorin; type: in vivo; settings: yellow sticky card traps, Davis CA
Experimental: Field Bioassays of Semiochemicals. To test the attractiveness of the various compounds of interest, some of the commercially available materials listed above were poured into 15 ml capped polyethylene bottles (Product #s A1-1050/002, A1-1055/002; Contech Enterprises Inc., Delta, British Columbia, Canada) and attached to yellow sticky card traps (Trécé, Adair, OK). In addition, synthesized (+) and (−) enantiomers of trans-conophthorin were tested in 400 μl polyethylene Eppendorf microcentrifuge tubes. Four field studies were conducted (Table 2) that tested the flight responses to: 3-methyl-2-buten-l-ol and related isomers (Field Test 1); 3-methyl-2-buten-l-ol with and without racemic trans-conophthorin (Field Test 2); 3-methyl-2-buten-l-ol with and without the purified enantiomers of trans-conophthorin (Field Test 3); and 3-methyl-2-buten-l-ol with and without racemic chalcogran (Field Test 4).
Statistical Analysis. Field Tests 1-4 were each analyzed for treatment effect by using Friedman's non-parametric analysis of variance. (See Zar, J. H. 2010. Biostatistical Analysis, 5th Ed. Pearson Prentice Hall, New Jersey). Males and females were subjected to separate analyses. All treatments within experiments yielding a significant treatment effect were compared by using an a posteriori Nemenyi test (Zar 2010) with experimentwise α=0.05. Sex ratios of responding WTB were determined using Cochran's method for unbiased sampling (See Cochran, W. G. 1977. Sampling Techniques, 3rd ed. John Wiley, New York), with 95% confidence intervals calculated by using the Clopper-Pearson method. (See Zar, J. H. 2010. Biostatistical Analysis, 5th Ed. Pearson Prentice Hall, New Jersey).

WTB [2] = assay: Example 2 Field Test 1: X in combination with X-3 and X-2; type: in vivo, Pityophthorus juglandis; settings: 4-unit Lindgren funnel traps
Experimental: Field Bioassays of 3-methyl-2-buten-1-ol in combination with other compounds. The flight response of WTB to 3-methyl-2-buten-1-ol in combination with other compounds was also tested. […] Louis, Mo. […] The five treatments were replicated in three spatial blocks and the treatments were re-randomized among the five trap stations in a block each time the traps were emptied (nearly every day). [table] Statistical Analyses. Analysis of treatment effects for the pouch vs. bottle experiment was done by using a sign test. (See Zar, J. H. 2010. Biostatistical Analysis. 5th ed. Pearson Prentice Hall, Englewood Cliffs, N.J.) The other four experiments were analyzed for treatment effect by using Friedman's non-parametric analysis of variance. Id. In all experiments, males and females were analyzed separately. All treatments within experiments yielding a significant treatment effect were compared by using an a posteriori Nemenyi test with experimentwise α=0.05. Id. For all experiments, differences among proportions of female WTB responding to treatments were analyzed by comparing 95% confidence intervals determined with the Clopper-Pearson method. Id.

WTB [3] = assay: Example 2 Field Test 2: X in combination with DMNT, vittatol, rose oxides; type: in vivo, Pityophthorus juglandis; design: trap catches, male WTB / trap catches, female WTB: dose or concentration left out as unconfirmed; settings: 4-unit Lindgren funnel traps
Experimental: At the same time and location, the flight response of WTB to 3-methyl-2-buten-1-ol ([…], Contech) was tested in combination with each of the following compounds: DMNT [4,8-dimethyl-1,3(E),7-nonatriene], vittatol [(3R,6R)-3-hydroxy-2,2,6-trimethyltetrahydropyran], (−)- and (+)-rose oxide [tetrahydro-4-methyl-2-(2-methylpropenyl)-2H-pyran] (Table 3, Field Test 2). DMNT and vittatol were synthesized and provided by Prof. Wittko Francke, University of Hamburg, Institute of Organic Chemistry; whereas (−)-rose oxide (>99% chemical purity, product #83917-1 ML, Fluka, Milwaukee, Wis.) and (+)-rose oxide (>99% chemical purity, product #83915-1 ML, Fluka) were purchased. The compounds besides 3-methyl-2-buten-1-ol were released from closed 400 μl Eppendorf microcentrifuge tubes (Evergreen) with loads of approximately 50 μl (DMNT); 20 mg (vittatol, solid at room temperature); and approx. 200 μl each of (−)-and (+)-rose oxide. The six treatments were replicated in three spatial blocks and the treatments were re-randomized among the six trap stations in a block each time the traps were emptied (nearly every day).
Statistical Analyses. Analysis of treatment effects for the pouch vs. bottle experiment was done by using a sign test. (See Zar, J. H. 2010. Biostatistical Analysis. 5th ed. Pearson Prentice Hall, Englewood Cliffs, N.J.) The other four experiments were analyzed for treatment effect by using Friedman's non-parametric analysis of variance. Id. In all experiments, males and females were analyzed separately. All treatments within experiments yielding a significant treatment effect were compared by using an a posteriori Nemenyi test with experimentwise α=0.05. Id. For all experiments, differences among proportions of female WTB responding to treatments were analyzed by comparing 95% confidence intervals determined with the Clopper-Pearson method. Id.

[4] = about one month late spring, N=16
[5] = X 15-60 mg/d, X-3 and X-2 1.76 mg/d, N=42

For `CC(C)=CCO` [X, 3-methyl-2-buten-1-ol], which “antennal activity by GC-EAD” value (P. juglandis) is on record?
The value was “antenally active”.

What about the “proportion of females responding” value [1] of the same compound?
Its value is 0.65.

And the “trap catches, female WTB” value [1, 4]?
Its value is 459.

And the “trap catches, male WTB” value [1, 4]?
Its value is 250.

And the “proportion of females responding” value (WTB [2])?
Its value is 0.77.

What about the “trap catches, female WTB” value (WTB [2]; [5]) of the same compound?
Its value is 636.

And the “trap catches, male WTB” value (WTB [2]; [5])?
The value was 193.

And the “proportion of females responding” value (WTB [3])?
The value was 0.70.

What about the “trap catches, female WTB” value (WTB [3]; N=42) of the same compound?
The value was 100.

And the “trap catches, male WTB” value (WTB [3]; N=42)?
Its value is 43.
